The source of these data is ChEMBL document CHEMBL6096632, “Synthesis and evaluation of N-arylindazole-3-carboxamide derivatives as novel antiviral agents against SARS-CoV-2” (Bioorg Med Chem Lett, 2024).

Each structure is given as a SMILES string.

The nature of series [1]: Cytotoxicity against African green monkey Vero cells incubated for 24 hrs by WST reagent based EZ-cytox assay. It is filed as toxicity, cell-based. Conditions: chlorocebus sabaeus.
The nature of series [2]: Selectivity index, ratio of CC50 for African green monkey Vero cells to EC50 for antiviral activity against SARS-CoV-2 expressing nucleocapsid protein infected in African green monkey Vero cells. It is filed as toxicity, cell-based. Conditions: read-out: Ratio CC50/EC50.
In series [3] the test system is SARS-CoV-2. Put plainly: Antiviral activity against SARS-CoV-2 expressing nucleocapsid protein infected in African green monkey Vero cells assessed as inhibition of viral growth by Hoechst 33342 staining based immunofluorescence analysis. Conditions: Severe acute respiratory syndrome coronavirus 2, Vero. The format is functional, organism-based.
Series [4] concerns the target CYP2D6 (Homo sapiens, UniProt P10635). Put plainly: Inhibition of CYP2D6 in human liver microsomes using dextromethorphan as substrate at 10 uM preincubated for 5 mins followed by substrate and NADPH addition and measured after 20 mins by HPLC-MS/MS analysis. The format is ADME, Microsome. As to conditions: probe dextromethorphan, time 25 min. In general terms: Microsomes from liver hold many membrane-bound enzymes, among them those of drug oxidation.

Series [5] can be described thus: Metabolic stability in human liver microsomes assessed as parent compound remaining preincubated for 10 mins followed by NADPH addition and measured after 30 mins by HPLC-MS/MS analysis. It is filed as ADME, Microsome. Conditions: time 40 min, read-out: Stability.
Series [6] has as its target CYP3A4 (Homo sapiens, UniProt P08684). Put plainly: Inhibition of CYP3A4 in human liver microsomes using […] as substrate at 10 uM preincubated for 5 mins followed by substrate and NADPH addition and measured after 20 mins by HPLC-MS/MS analysis. It is filed as ADME, Microsome. Conditions: probe sorafenib, time 25 min.
A short description of series [7]: Metabolic stability in mouse liver microsomes assessed as parent compound remaining preincubated for 10 mins followed by NADPH addition and measured after 30 mins by HPLC-MS/MS analysis. The format is ADME, Microsome. Conditions: time 40 min, read-out: Stability.
For series [8], the target named is CYP2C9 (Homo sapiens, UniProt P11712). Put plainly: Inhibition of CYP2C9 in human liver microsomes using tolbutamide as substrate at 10 uM preincubated for 5 mins followed by substrate and NADPH addition and measured after 20 mins by HPLC-MS/MS analysis. The format is ADME, Microsome. As to conditions: probe tolbutamide, time 25 min.
CYP2C9, sequence (P11712 whole entry): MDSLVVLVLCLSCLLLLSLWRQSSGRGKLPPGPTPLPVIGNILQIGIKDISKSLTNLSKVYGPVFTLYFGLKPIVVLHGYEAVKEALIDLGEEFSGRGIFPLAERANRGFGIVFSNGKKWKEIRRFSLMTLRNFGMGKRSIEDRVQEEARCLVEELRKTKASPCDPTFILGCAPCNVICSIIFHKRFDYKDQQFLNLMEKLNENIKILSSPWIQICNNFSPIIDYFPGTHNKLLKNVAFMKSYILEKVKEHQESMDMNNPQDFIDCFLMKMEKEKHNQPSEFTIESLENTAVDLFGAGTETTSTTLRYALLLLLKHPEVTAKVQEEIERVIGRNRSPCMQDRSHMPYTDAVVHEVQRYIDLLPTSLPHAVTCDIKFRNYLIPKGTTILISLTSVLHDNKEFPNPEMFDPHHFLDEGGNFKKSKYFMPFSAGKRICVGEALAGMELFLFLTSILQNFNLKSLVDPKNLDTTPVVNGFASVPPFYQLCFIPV
Series [9] is described as follows: Cytotoxicity against HFL1 cells incubated for 24 hrs by WST reagent based EZ-cytox assay. It is filed as toxicity, cell-based. Conditions: human.
Series [10] can be described thus: Cytotoxicity against mouse NIH3T3 cells incubated for 24 hrs by WST reagent based EZ-cytox assay. The format is toxicity, cell-based.
In series [11] the target is CYP2C19 (Homo sapiens, UniProt P33261). Put plainly: Inhibition of CYP2C19 in human liver microsomes using S-mephenytoin as substrate at 10 uM preincubated for 5 mins followed by substrate and NADPH addition and measured after 20 mins by HPLC-MS/MS analysis. It is filed as ADME, Microsome. Conditions: probe S-mephenytoin, time 25 min.
CYP2C19, sequence (P33261 whole entry): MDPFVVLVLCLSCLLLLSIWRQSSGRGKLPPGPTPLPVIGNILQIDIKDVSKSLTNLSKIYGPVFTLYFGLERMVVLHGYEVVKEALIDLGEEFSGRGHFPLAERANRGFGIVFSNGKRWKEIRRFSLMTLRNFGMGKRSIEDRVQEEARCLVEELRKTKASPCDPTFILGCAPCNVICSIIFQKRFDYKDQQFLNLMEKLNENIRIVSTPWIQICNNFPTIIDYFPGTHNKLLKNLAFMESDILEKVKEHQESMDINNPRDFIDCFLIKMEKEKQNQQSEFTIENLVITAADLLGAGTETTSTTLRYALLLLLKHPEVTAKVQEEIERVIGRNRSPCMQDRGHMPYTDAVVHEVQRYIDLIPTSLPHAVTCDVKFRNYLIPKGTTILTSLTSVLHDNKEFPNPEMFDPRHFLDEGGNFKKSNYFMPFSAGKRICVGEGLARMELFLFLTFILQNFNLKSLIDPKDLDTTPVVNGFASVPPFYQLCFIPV
Series [12] in a line: Cytotoxicity against CHO-K1 cells incubated for 24 hrs by WST reagent based EZ-cytox assay. The format is toxicity, cell-based, Cricetulus griseus. As to conditions: chinese hamster.
Series [13] in a line: Cytotoxicity against mouse L929 cells incubated for 24 hrs by WST reagent based EZ-cytox assay. The format is toxicity, cell-based.
In series [14] the target is hERG (KCNH2) (Homo sapiens, UniProt Q12809). Put plainly: Inhibition of human ERG at 10 uM by fluorescence polarization relative to control. It is filed as toxicity.
hERG (KCNH2), sequence (Q12809 whole entry): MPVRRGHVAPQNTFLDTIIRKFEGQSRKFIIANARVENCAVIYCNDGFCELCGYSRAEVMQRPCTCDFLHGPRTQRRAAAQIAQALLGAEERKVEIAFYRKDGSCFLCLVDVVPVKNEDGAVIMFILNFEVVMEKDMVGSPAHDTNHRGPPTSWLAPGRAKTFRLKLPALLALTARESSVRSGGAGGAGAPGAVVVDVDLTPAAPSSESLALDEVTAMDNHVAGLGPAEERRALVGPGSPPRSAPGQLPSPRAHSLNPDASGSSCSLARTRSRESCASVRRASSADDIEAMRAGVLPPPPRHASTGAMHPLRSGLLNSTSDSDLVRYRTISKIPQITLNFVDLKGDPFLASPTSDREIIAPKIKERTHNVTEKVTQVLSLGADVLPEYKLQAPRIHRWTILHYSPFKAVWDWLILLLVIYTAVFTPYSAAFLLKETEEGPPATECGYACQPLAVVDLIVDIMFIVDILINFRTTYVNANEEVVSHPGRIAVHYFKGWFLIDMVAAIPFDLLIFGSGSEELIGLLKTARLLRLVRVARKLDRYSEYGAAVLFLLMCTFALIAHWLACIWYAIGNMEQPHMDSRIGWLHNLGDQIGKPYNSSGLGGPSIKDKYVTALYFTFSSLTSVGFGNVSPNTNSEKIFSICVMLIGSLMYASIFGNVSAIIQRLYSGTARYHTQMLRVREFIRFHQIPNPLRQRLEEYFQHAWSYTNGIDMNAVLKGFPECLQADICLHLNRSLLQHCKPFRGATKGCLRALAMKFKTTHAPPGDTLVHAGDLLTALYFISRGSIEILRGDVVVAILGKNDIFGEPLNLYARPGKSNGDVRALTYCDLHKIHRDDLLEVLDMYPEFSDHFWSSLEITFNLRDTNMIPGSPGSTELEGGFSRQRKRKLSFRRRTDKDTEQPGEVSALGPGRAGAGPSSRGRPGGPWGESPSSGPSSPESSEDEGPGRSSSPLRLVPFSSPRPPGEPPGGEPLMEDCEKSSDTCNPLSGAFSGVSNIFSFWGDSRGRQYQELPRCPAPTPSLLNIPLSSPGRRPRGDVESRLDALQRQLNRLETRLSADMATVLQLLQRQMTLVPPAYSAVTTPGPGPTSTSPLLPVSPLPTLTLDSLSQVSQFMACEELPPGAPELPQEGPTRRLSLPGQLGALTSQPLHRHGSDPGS
Series [15] addresses T1, CYP1A2 (Homo sapiens, UniProt P05177).
T1 sequence (P05177 whole entry): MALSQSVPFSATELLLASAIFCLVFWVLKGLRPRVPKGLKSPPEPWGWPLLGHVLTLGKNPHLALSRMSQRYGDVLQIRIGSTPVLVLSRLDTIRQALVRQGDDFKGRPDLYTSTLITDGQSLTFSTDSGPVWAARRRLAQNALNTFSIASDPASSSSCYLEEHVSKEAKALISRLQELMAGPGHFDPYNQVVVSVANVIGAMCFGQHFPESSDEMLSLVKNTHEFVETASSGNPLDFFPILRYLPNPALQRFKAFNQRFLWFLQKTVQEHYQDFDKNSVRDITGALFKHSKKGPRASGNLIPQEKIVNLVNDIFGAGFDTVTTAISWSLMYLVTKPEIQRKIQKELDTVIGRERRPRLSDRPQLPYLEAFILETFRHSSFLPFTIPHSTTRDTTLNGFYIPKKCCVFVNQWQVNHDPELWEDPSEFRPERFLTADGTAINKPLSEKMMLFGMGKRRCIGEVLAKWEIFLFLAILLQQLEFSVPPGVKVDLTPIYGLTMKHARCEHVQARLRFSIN
Put plainly: Inhibition of CYP1A2 in human liver microsomes using phenacetin as substrate at 10 uM preincubated for 5 mins followed by substrate and NADPH addition and measured after 20 mins by HPLC-MS/MS analysis. As to conditions: probe phenacetin, time 25 min. It is filed as ADME, Microsome.

The subject of series [16] is Middle East respiratory syndrome-related coronavirus. Put plainly: Antiviral activity against MERS-CoV expressing spike protein infected in African green monkey Vero cells assessed as inhibition of viral growth by Hoechst 33342 staining based immunofluorescence analysis. It is filed as functional, organism-based.

CYP3A4, sequence (P08684 whole entry): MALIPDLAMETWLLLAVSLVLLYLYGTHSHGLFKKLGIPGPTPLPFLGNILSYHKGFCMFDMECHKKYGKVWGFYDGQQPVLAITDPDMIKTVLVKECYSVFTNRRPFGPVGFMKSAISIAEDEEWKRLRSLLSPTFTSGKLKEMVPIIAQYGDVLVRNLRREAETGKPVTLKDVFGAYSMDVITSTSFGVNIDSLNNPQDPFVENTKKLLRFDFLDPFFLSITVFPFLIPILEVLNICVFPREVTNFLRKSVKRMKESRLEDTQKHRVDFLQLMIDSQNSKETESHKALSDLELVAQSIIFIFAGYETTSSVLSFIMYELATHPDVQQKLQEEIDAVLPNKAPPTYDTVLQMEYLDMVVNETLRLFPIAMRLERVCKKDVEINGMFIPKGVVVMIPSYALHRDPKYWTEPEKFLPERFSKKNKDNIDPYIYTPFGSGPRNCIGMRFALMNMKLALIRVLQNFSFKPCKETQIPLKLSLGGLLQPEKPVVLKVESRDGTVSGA
CYP2D6, sequence (P10635 whole entry): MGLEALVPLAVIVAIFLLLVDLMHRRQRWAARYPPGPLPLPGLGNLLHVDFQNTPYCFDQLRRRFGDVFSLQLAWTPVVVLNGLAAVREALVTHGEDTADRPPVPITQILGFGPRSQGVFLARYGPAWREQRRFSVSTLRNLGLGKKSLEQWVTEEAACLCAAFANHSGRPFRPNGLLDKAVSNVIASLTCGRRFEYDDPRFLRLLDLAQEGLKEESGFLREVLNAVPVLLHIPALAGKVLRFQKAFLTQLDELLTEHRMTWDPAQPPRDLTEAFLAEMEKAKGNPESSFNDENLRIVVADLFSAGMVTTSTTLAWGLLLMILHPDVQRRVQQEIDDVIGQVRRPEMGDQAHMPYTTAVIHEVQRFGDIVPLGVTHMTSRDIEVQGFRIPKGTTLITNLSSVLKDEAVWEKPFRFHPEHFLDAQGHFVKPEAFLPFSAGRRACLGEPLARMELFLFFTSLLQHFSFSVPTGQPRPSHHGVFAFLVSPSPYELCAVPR

In the case of `N#Cc1ccccc1NC(=O)c1n[nH]c2ccc(Cl)cc12`, the CC50 at 24 h in [1] was > 25 µM. Moreover, the selectivity ratio in series [2] came out at 1. In addition, the EC50 in series [3] was > 25 µM.

With `N#Cc1cccc(NC(=O)c2n[nH]c3ccc(Cl)cc23)c1`, the CC50 at 24 h in [1] is > 25 µM. Moreover, in series [2], the selectivity ratio is > 13.7. For the same compound, the EC50 in series [3] is 1.8 µM.

Regarding `CCCCNC(=O)c1n[nH]c2ccc(Cl)cc12`, the CC50 at 24 h in series [1] was > 25 µM. The selectivity ratio in series [2] is 1. For the same compound, the 50% effective concentration (EC50) in series [3] was > 25 µM.

As to `O=C(Nc1cccc(OC(F)(F)F)c1)c1n[nH]c2ccc(Cl)cc12`, the CC50 at 24 h in series [1] is > 25 µM. The selectivity ratio in series [2] was > 4.6. The EC50 in series [3] worked out at 5.5 µM.

For `CCC(CC)COC(=O)[C@H](C)N[P@](=O)(OC[C@H]1O[C@@](C#N)(c2ccc3c(N)ncnn23)[C@H](O)[C@@H]1O)Oc1ccccc1`, the CC50 at 24 h in series [1] is > 25 µM.

On to `N#Cc1ccc(NC(=O)c2n[nH]c3ccc(Cl)cc23)cc1`, for which the CC50 at 24 h in series [1] was > 25 µM. In addition, the selectivity ratio in series [2] was determined as 1. Further, the half-maximal effective concentration (EC50) in series [3] is > 25 µM.

On to `O=C(Nc1cccc(F)c1)c1n[nH]c2ccc(Cl)cc12`, for which, in [1], the CC50 at 24 h is > 25 µM. The selectivity ratio in series [2] was 1. Moreover, the EC50 in series [3] was > 25 µM.

Turning to `O=C(NC1CCCCC1)c1n[nH]c2ccc(Cl)cc12`, the CC50 at 24 h in [1] was > 25 µM. For the same compound, the selectivity ratio in [2] came to 1. Further, the 50% effective concentration (EC50) in series [3] is > 25 µM.

With `O=C(Nc1cccc(C(F)(F)F)c1)c1n[nH]c2ccc(Cl)cc12`, the 50% cytotoxic concentration (CC50) at 24 h in series [1] is > 25 µM. For the same compound, the selectivity ratio in [2] is > 8.8. Also, the concentration giving a half-maximal response (EC50) in series [3] worked out at 2.8 µM.

Regarding `O=C(Nc1cc(Cl)cc(Cl)c1)c1n[nH]c2ccc(F)cc12`, the 50% cytotoxic concentration (CC50) at 24 h in series [1] is > 25 µM. Also, the selectivity ratio in [2] was found to be 1. The concentration for a half-maximal effect (EC50) in series [3] was > 25 µM.

For the compound `O=C(Nc1cccc([N+](=O)[O-])c1)c1n[nH]c2ccc(Cl)cc12`, the half-maximal cytotoxic concentration (CC50) at 24 h in [1] was > 25 µM. In addition, the selectivity ratio in series [2] came out at 1. Moreover, the EC50 in series [3] is > 25 µM.

Take `O=C(Nc1cc(Cl)cc(Cl)c1)c1n[nH]c2cc(Cl)ccc12`: in [1], the CC50 at 24 h was > 25 µM. The selectivity ratio in [2] worked out at 1. Also, in series [3], the EC50 was > 25 µM.

For `O=C(Nc1ccc(F)cc1)c1n[nH]c2ccc(Cl)cc12`, the CC50 at 24 h in series [1] was > 25 µM. Also, the selectivity ratio in [2] came out at 1. Also, the EC50 in [3] is > 25 µM.

With `Cc1cc(C)cc(NC(=O)c2n[nH]c3ccc(Cl)cc23)c1`, the cytotoxic concentration (CC50) at 24 h in series [1] was > 25 µM. In [2], the selectivity ratio is > 11.1. The EC50 in series [3] was determined as 2.3 µM.

Take `O=C(Nc1ccc(Cl)cc1)c1n[nH]c2ccc(Cl)cc12`: the half-maximal cytotoxic concentration (CC50) at 24 h in series [1] was > 25 µM. Moreover, the selectivity ratio in series [2] is 1. For the same compound, the EC50 in series [3] was > 25 µM.

Consider `O=C(Nc1cc(Cl)cc(Cl)c1)c1n[nH]c2cc(F)ccc12`, for which the cytotoxic concentration (CC50) at 24 h in series [1] is > 25 µM. The selectivity ratio in series [2] was > 21.4. In addition, the EC50 in series [3] turned out to be 1.2 µM.

Regarding `Cc1cccc(NC(=O)c2n[nH]c3ccc(Cl)cc23)c1`, the cytotoxic concentration (CC50) at 24 h in [1] was > 25 µM. Further, in series [2], the selectivity ratio was 1. Moreover, in [3], the EC50 was > 25 µM.

For `O=C(Nc1cc(Cl)cc(Cl)c1)c1n[nH]c2ccc(Cl)cc12`, the inhibition at 20 min, 10 µM worked out at 1% in series [4]; 54% in series [6]; 14% in [8]; 8% in series [11]; 11% in series [15]. The remaining at 0.5 h in series [5] came out at 97%; in [7], 48%. Further, the half-maximal cytotoxic concentration (CC50) at 24 h is > 20 µM in series [1]; > 100 µM in series [9]; > 100 µM in series [10]; > 100 µM in series [12]; > 100 µM in series [13]. Further, the selectivity ratio in [2] is > 36. For the same compound, the EC50 in [3] was 0.69 µM. Further, in series [14], the inhibition at 10 µM is < 1%.

For the compound `O=C(Nc1ccccc1Cl)c1n[nH]c2ccc(Cl)cc12`, in series [1], the CC50 at 24 h was > 25 µM. In addition, the selectivity ratio in series [2] is 1. Besides, the EC50 in series [3] is > 25 µM.

Consider `O=C(Nc1cc(Cl)cc(Cl)c1)c1n[nH]c2ccccc12`, for which the 50% cytotoxic concentration (CC50) at 24 h in [1] was > 25 µM. Besides, the concentration for a half-maximal effect (EC50) in series [16] was 1.7 µM; in [3] it was > 25 µM. For the same compound, the selectivity ratio in series [2] worked out at 1.

On to `O=C(Nc1ccccc1F)c1n[nH]c2ccc(Cl)cc12`, for which the CC50 at 24 h in series [1] was > 25 µM. The selectivity ratio in series [2] came out at 1. The EC50 in series [3] was > 25 µM.

By CC50 is commonly meant the concentration at which the toxic effect on the cells reaches its halfway point. A word on the EC50: it is the concentration at which the effect is half-maximal. A word on the inhibition: it is the percentage by which the read-out fell short of the control.
